Experimental data: publication PMC6484020, “Discovery of selective activators of PRC2 mutant EED-I363M” (Scientific Reports, 2019)
Entries after “also recorded” stand apart in the source; their conditions may differ. Where a SMILES comes first, the peptide text is derived from it. [ ]: non-standard residue; d: D form. Lys(Me3) = C[N+](C)(C)CCCC[C@H](N)C(=O)O

Experiments:
PRC2-WT (EED/EZH2/SUZ12) [1] = molecular target: T1, PRC2-WT (EED/EZH2/SUZ12) (Homo sapiens, UniProt O75530+Q15910); test: Methyltransferase scintillation proximity assay, H3 (21-44) peptide substrate; format: biochemical; settings: for effect on catalytic activity of PRC2-WT: H3 peptide substrate, compound up to 100 µM, normalized to activity without compound; for kcat, H3(21–44), PRC2-WT: in the presence of 20 µM compound, peptide substrate, mean ± SD, n = 3
T1 construct: the full lengths of two components of the PRC2 complex, EED(1–441) and EZH2(1–751); EED(1–441) and EZH2(1–751) were cloned into pFastBac-Dual; made in house; host or cells: Sf9 insect cells (baculovirus co-infection)
Experimental: (§1) Methyltransferase activity assay for WT PRC2 (EED/EZH2/SUZ12) or mutant PRC2-EED-I363M (EED/EZH2/SUZ12) was performed by monitoring the incorporation of tritium-labeled methyl group to lysine 27 of H3 (21–44) peptide using Scintillation Proximity Assay (SPA) or to human nucleosome using a filter-based assay. The enzymatic reactions were performed at 23 °C with 1 hour incubation of 10 µl reaction mixture in 20 mM Tris-HCl, pH 8, 5 mM DTT, and 0.01% Triton X-100 containing 2 µM of ^3H-SAM (Cat.# NET155V250UC; Perkin Elmer; www.perkinelmer.com), 1 µM of biotinylated H3 (21–44), 20 nM PRC2-WT or PRC2-mutant. To stop the reactions, 10 µL of 7.5 M Guanidine hydrochloride was added, followed by 200 µl of buffer (20 mM Tris, pH 8.0), mixed and transferred to a 96-well Streptavidin coated Flash-plate (Cat. # SMP410A001PK, PerkinElmer, http://www.perkinelmer.ca). After mixing, the mixtures in Flash-plate were incubated for 2 hours and the CPM counts were measured using Topcount plate reader (Perkin Elmer, www.perkinelmer.com).
(§2) The CPM counts in the absence of compound for each dataset were defined as 100% activity. In the absence of the enzyme, the CPM counts in each data set were defined as background (0%). All enzymatic reactions were performed in triplicate and the data were analyzed by GraphPad Prism 7 software.
(§3) Supplementary Figure S5. Testing the effect of 9 compounds on activity of WT- and EED-I363M mutant PRC2 complexes. Activities of WT- and mutant-PRC2 in the presence of each compound are normalized to activity of each protein complex in the absence of compound as 100%.
Experiments were performed using 20 nM of each WT or mutant PRC2 trimeric (EED/EZH2/SUZ12) complexes, 2 µM 3H-SAM, 1 µM biotin-H3 (21-44), and up to 100 µM of compounds, 20 mM Tris-HCl pH 8.0, 5 mM DTT and 0.01% Triton X-100. […]
(§4) Supplementary Figure S7. Determination of kcat values for WT- and EED- I363M mutant trimeric PRC2 complexes in the presence of activators. The kcat values were determined using (A) H3 (21-44) in the presence of 20 µM of each compound or (B) human nucleosome as a substrate in the presence of 200 µM of each compound. Experiments were […]
(§5) performed in triplicate under the following assay conditions:
(§6) (A) Peptide as substrate: 20 nM wildtype or EED-I363M mutant PRC2 (EED/EZH2/SUZ12), 2 µM biotinylated-H3 (21-44) peptide, various concentrations of 3H-SAM (up to 5 µM). […]
(§7) Reactions with both substrates were incubated for 30 min at 23°C in 20 mM Tris-HCl pH 8.0, 5

[2] = molecular target: T2, PRC2-EED-I363M (EED/EZH2/SUZ12) (Homo sapiens, UniProt O75530+Q15910, I363M); test: as above; format: biochemical; settings: for effect on catalytic activity of PRC2-EED-I363M: H3 peptide substrate, normalized to activity without compound; for effect on catalytic activity of PRC2-EED-I363M / EC50: compound up to 100 µM; for EC50: 20 nM enzyme, 5 µM 3H-SAM, 2 µM biotin-H3 (21-44), 30 min, 23 °C, read-out: EC50 for activation of PRC2-EED-I363M; for increase of PRC2-EED-I363M kcat values: 20 µM compound, peptide as substrate; for kcat, H3(21–44), PRC2-EED-I363M: in the presence of 20 µM compound, peptide substrate, mean ± SD, n = 3
T2 construct: the full lengths of two components of the PRC2 complex, EED(1–441) and EZH2(1–751); EED(1–441) and EZH2(1–751) were cloned into pFastBac-Dual; made in house; host or cells: Sf9 insect cells (baculovirus co-infection)
Experimental: as §1, §2, §3
Experiments were performed using 20 nM of each WT or mutant PRC2 trimeric (EED/EZH2/SUZ12) complexes, 2 µM 3H-SAM, 1 µM biotin-H3 (21-44), and up to 100 µM of compounds, 20 mM Tris-HCl pH 8.0, 5 mM DTT and 0.01% Triton X-100.
Supplementary Figure S6. EC50 determination for activators. The EC50 values were determined […]
PRC2 mutant (EED/EZH2/SUZ12), 5 µM 3H-SAM, 2 µM biotin-H3 (21-44) and compound concentrations up to 100 µM. Reactions were incubated for 30 min at 23°C in 20 mM Tris-HCl pH 8.0, 5 mM DTT, 0.01% Triton X-100). Experiments were performed in triplicate. Data shown […]
as §4, §5, §6, §7

wildtype EED = settings: cited from earlier work
[3] = molecular target: T2, PRC2-EED-I363M (EED/EZH2/SUZ12); test: Filter-based methyltransferase assay, human nucleosome substrate; format: biochemical; settings: for increase of PRC2-EED-I363M kcat values: human nucleosomes as substrate; for kcat, Human nucleosome, PRC2-EED-I363M: in the presence of 200 µM compound, nucleosome substrate, mean ± SD, n = 3
Experimental: (§8) Figure 3 Effect of compound 1, 2 and 4 on activity of PRC2-WT and PRC2-EED-I363M. Effect of the selected compounds on activity of PRC2-WT and PRC2-EED-I363M mutant were assessed using human nucleosome as a substrate. Experiments were performed in triplicate using 200 nM of enzyme, 2 µM 3H-SAM and 5 µM human nucleosome and 200 µM compounds incubated for 30 min at 23 °C in 20 mM Tris-HCl pH 8.0, 5 mM DTT, 0.01% Triton X-100.
(§9) A filter-based assay was used for human nucleosome as a substrate. The reactions were carried out at 23 °C with 0.5 hour incubation of 10 µl reaction mixture in 20 mM Tris-HCl, pH 8, 5 mM DTT, and 0.01% Triton X-100 containing 2 µM of ^3H-SAM (Cat.# NET155V250UC; Perkin Elmer; www.perkinelmer.com), 5 µM of human nucleosome, 200 nM PRC2-WT or PRC2 mutant. To stop the reactions, 50 µl of 10% TCA was added, mixed and transferred to filter-plates (Millipore; Cat.# MSFBN6B10; www.millipore.com). Plates were centrifuged at 2000 rpm (Allegra X-15R - Beckman Coulter, Inc.) for 2 min followed by two additional 10% TCA wash and one ethanol wash (180 µl) followed by centrifugation. Plates were dried and 100 µl MicroO (MicroScint-O; Cat.# 6013611, Perkin Elmer; www.perkinelmer.com) was added to each well, centrifuged and removed. 70 µl of MicroO was added again and CPM was measured using Topcount plate reader.
as §2, §4
(§10) performed in triplicate under the following assay conditions: […]
(§11) (B) Human nucleosome as a substrate: 200 nM wildtype or EED-I363M mutant trimeric PRC2 (EED/EZH2/SUZ12), various concentrations of 3H-SAM (up to 5 µM) and 5 µM human […]
as §7

PRC2-WT (EED/EZH2/SUZ12) [4] = molecular target: T1, PRC2-WT (EED/EZH2/SUZ12); test: as above; format: biochemical; settings: for kcat, Human nucleosome, PRC2-WT: in the presence of 200 µM compound, nucleosome substrate, mean ± SD, n = 3
Experimental: as §8, §9, §2, §4, §10, §11, §7

T1 sequence (O75530 whole entry): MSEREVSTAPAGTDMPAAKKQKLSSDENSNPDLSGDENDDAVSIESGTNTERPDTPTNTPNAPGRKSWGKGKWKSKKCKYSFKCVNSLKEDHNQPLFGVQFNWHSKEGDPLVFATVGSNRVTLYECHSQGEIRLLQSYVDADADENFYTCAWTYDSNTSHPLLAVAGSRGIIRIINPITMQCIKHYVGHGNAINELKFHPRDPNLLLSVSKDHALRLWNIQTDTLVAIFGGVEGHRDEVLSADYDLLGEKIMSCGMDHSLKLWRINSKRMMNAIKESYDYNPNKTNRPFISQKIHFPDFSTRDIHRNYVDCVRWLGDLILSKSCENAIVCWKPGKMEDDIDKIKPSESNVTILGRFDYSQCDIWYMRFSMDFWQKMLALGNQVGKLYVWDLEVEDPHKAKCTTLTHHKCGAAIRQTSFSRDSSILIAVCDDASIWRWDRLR
T1 sequence (Q15910 1-751 isoform Q15910-2): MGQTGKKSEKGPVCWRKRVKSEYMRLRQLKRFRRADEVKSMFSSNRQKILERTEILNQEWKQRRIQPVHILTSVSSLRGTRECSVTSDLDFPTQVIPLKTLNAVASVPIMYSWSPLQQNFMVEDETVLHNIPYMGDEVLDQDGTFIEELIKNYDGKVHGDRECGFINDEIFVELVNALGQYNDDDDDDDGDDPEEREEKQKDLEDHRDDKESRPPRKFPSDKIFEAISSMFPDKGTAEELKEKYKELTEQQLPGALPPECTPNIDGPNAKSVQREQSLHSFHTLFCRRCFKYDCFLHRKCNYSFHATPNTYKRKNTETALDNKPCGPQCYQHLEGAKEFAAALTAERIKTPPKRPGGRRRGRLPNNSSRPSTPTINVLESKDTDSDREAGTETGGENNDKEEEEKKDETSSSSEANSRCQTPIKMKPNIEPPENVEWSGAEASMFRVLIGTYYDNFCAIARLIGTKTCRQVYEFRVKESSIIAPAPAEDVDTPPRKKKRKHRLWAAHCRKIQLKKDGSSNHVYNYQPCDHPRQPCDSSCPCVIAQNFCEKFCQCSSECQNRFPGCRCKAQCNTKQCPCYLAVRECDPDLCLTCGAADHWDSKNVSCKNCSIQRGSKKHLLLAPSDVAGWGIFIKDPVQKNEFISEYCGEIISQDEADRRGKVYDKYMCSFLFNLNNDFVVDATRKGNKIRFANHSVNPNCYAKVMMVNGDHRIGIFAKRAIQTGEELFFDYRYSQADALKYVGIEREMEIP
T1 sequence (Q15022 whole entry partner): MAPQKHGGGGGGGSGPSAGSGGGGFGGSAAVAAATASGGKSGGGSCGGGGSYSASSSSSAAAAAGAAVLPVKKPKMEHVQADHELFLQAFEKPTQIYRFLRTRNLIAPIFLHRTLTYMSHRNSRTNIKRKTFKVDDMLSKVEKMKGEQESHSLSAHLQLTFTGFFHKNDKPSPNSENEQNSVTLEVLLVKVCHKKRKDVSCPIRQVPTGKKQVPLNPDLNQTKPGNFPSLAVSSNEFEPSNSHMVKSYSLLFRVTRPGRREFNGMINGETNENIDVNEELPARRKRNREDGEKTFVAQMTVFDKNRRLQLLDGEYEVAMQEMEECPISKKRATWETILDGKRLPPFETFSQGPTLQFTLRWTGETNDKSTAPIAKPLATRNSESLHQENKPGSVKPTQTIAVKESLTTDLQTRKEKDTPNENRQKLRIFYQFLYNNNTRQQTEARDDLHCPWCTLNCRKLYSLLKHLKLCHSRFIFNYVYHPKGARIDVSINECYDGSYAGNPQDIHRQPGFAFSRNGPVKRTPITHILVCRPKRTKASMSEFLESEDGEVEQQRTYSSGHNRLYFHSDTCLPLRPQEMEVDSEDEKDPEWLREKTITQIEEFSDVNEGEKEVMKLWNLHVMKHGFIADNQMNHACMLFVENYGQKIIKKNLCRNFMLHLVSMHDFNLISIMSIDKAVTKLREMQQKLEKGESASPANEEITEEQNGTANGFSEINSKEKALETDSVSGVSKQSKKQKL
T2 sequence (O75530 whole entry I363M): as the sequence (O75530 whole entry) above, with I363M counted along it
T2 sequence (Q15910 1-751 isoform Q15910-2, stated change not applied): as the sequence (Q15910 1-751 isoform Q15910-2) above
T2 sequence (Q15022 whole entry partner): as the sequence (Q15022 whole entry partner) above

Compound | effect on catalytic activity of PRC2-WT (PRC2-WT (EED/EZH2/SUZ12) [1]) | effect on catalytic activity of PRC2-EED-I363M [2] | Kd (wildtype EED) [µM] | kcat, H3(21–44), PRC2-WT (PRC2-WT (EED/EZH2/SUZ12) [1]) [s⁻¹] | EC50 [2] [µM] | increase of PRC2-EED-I363M kcat values [2] | kcat, H3(21–44), PRC2-EED-I363M [2] [s⁻¹] | increase of PRC2-EED-I363M kcat values [3] | kcat, Human nucleosome, PRC2-EED-I363M [3] [s⁻¹] | kcat, Human nucleosome, PRC2-WT (PRC2-WT (EED/EZH2/SUZ12) [4]) [s⁻¹] | effect on PRC2-WT catalytic activity (PRC2-WT (EED/EZH2/SUZ12) [4]; human nucleosome as substrate)
CC(C)C[C@H](NC(=O)[C@H](Cc1ccccc1)NC(=O)[C@H](CCCCN(C)C(C)C)NC(=O)[C@@H]1C[C@@H]2CCCC[C@@H]2N1)C(N)=O [UNC5114, reference compound] | antagonized | minimal effects | 0.7 to 1.1 | – | – | – | – | – | – | – | –
CC(C)C[C@H](NC(=O)[C@H](Cc1ccccc1)NC(=O)[C@H](CCCC[N+](C)(C)C)NC(=O)[C@H](CCCNC(=N)N)NC(=O)[C@@H]1CCCN1)C(N)=O [compound 1] (H-PR[Lys(Me3)]FL-NH2) | minimal effects | significant increase | – | 0.00694 ± 0.00014 | 2.3 ± 0.4 | more than 2 fold | 0.00556 ± 0.00028 | about 2 fold | 0.000361 ± 2.8e-06 | 0.000472 ± 1.4e-05 | –
CC(C)C[C@H](NC(=O)[C@H](Cc1ccccc1)NC(=O)[C@H](CCCC[N+](C)(C)C)NC(=O)[C@H](CCCCN)NC(=O)[C@@H]1CCCN1)C(N)=O [compound 2] (H-PK[Lys(Me3)]FL-NH2) | minimal effects | significant increase | – | 0.00667 ± 0.00014 | 2.4 ± 0.4 | more than 2 fold | 0.00583 ± 0.00028 | about 2 fold | 0.000417 ± 5.6e-06 | 0.000444 ± 1.1e-05 | weak inhibitor
CC(C)CC(NC(=O)C(Cc1ccccc1)NC(=O)C(CCCC[N+](C)(C)C)NC(=O)C1CC2CCCCC2N1CCCCN)C(N)=O (stereo not drawn) [compound 3] | highest inhibition; also recorded: dose-dependent inhibitory potency | does not show any activator effect | – | – | – | – | – | – | – | – | –
